From ChEMBL document CHEMBL1201862, “PubChem BioAssay data set” (2004) come the findings set out here.

The nature of test [1]: cells. In kind it is functional, cell-based.
A short description of test [2]: cells. In kind it is functional, cell-based. This is another data set of the same source.
A further test has as its target T1, Caspase-3 (Homo sapiens, UniProt P42574).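 Also: Dose-response selectivity test against caspase-3 for candidate inhibitors of sentrin-specific proteases (SENPs).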
T1 sequence (P42574 whole entry): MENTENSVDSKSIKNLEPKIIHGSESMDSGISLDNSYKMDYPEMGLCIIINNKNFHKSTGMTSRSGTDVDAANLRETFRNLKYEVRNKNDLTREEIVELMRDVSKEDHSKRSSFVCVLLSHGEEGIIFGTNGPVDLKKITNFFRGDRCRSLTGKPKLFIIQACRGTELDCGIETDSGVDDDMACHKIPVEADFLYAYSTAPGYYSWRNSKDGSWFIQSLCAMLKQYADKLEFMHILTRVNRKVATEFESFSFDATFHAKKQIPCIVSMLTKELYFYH
In kind it is functional.

The target of test [3] is T2, Sentrin-specific protease 8 (Homo sapiens, UniProt Q96LD8).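 Also: luminescence read-out of SENP8 inhibition, dose-response confirmation following an ultra-high-throughput screen.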
T2 sequence (Q96LD8 whole entry): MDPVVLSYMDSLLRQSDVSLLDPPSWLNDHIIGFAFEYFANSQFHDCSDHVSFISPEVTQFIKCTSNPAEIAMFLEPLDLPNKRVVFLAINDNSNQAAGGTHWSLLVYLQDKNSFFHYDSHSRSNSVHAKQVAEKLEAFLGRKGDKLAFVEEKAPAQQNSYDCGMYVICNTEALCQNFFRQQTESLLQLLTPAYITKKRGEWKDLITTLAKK
In kind it is functional.

For test [4], the target named is T3, Sentrin-specific protease 7 (Homo sapiens, UniProt Q9BQF6).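 Also: Luminescence-based dose-response confirmation of ultra-high-throughput screening hits, measuring inhibition of SENP7.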
T3 sequence (Q9BQF6 whole entry): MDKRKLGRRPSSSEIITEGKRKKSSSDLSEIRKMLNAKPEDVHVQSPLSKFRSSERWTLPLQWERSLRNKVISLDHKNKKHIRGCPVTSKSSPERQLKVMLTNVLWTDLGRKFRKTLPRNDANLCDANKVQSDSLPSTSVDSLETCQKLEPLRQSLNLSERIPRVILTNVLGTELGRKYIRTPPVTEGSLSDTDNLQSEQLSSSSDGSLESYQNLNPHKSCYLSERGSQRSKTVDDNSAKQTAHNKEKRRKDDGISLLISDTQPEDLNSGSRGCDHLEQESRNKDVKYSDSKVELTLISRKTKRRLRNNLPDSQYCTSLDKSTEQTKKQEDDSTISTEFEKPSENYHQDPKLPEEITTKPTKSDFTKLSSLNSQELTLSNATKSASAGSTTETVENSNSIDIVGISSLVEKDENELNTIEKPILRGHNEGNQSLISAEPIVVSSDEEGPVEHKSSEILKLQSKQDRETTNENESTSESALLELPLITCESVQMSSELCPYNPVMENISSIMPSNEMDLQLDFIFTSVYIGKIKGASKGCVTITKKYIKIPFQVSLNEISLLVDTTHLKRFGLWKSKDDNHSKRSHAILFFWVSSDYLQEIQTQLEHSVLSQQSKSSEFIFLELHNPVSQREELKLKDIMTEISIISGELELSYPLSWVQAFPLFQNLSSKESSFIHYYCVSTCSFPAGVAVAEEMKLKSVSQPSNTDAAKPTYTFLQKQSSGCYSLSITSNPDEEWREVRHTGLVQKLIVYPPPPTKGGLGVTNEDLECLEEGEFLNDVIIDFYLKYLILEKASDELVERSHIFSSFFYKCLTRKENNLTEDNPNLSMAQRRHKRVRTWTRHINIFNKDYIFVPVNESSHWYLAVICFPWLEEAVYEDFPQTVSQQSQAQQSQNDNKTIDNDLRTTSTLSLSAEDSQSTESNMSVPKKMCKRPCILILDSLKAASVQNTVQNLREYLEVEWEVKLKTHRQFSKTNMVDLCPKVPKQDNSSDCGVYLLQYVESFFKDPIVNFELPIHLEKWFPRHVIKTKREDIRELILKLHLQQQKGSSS
In kind it is functional.

Test [5] deals with T4, Sentrin-specific protease 6 (Homo sapiens, UniProt Q9GZR1).
T4 sequence (Q9GZR1 whole entry): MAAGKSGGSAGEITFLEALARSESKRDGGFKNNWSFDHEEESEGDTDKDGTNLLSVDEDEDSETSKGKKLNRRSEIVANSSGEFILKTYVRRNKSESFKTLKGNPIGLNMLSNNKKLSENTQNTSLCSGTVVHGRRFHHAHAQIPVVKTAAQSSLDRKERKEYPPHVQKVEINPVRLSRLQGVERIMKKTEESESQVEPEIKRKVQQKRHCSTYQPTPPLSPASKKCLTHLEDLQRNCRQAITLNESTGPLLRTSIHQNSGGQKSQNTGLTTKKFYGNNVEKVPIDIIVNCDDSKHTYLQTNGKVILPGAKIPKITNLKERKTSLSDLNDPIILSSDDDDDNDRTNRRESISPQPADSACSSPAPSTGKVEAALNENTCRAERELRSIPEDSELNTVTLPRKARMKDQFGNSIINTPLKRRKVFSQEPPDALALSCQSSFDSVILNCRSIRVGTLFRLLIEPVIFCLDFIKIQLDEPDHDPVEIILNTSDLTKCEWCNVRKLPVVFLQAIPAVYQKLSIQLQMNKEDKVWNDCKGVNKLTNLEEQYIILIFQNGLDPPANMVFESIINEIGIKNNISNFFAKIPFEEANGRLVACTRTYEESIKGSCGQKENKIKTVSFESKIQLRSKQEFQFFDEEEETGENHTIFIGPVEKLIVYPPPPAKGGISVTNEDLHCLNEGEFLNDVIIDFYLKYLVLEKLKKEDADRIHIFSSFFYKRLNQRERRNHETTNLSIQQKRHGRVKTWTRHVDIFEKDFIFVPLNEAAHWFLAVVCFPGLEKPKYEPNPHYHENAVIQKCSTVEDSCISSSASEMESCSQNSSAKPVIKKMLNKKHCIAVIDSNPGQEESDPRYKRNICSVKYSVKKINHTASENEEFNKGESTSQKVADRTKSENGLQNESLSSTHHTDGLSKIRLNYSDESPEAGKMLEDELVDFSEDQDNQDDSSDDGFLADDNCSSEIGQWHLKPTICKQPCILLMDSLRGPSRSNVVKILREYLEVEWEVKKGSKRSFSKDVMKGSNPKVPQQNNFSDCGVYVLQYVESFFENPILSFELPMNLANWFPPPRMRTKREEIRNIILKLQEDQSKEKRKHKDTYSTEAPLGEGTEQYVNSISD
In kind it is functional.

The target in test [6] is T5, Fatty acid synthase (Homo sapiens, UniProt P49327). Briefly: FAS thioesterase domain inhibitors, dose response, biochemical, kinetic fluorescence intensity (AID 624326).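 Also: rate of fluorescence rise from hydrolysis of a fluorogenic O-methyl fluorescein ester substrate.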 Format: functional.
For test [7], the target named is T5, Fatty acid synthase. The test can be described thus: FAS thioesterase domain inhibitors, dose response, biochemical, endpoint fluorescence intensity, uHTS hits (AID 624327).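 Also: fluorescence from hydrolysis of an O-methyl fluorescein acyl ester substrate by the enzyme.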 In kind it is functional.
For test [8], the target named is Induced myeloid leukemia cell differentiation protein Mcl-1 (Homo sapiens, UniProt Q07820). Format: functional.
Test [9] can be described thus: cells. Format: functional, cell-based. This is another data set of the same source.
Test [10] addresses T6, Trace amine-associated receptor 1 (Homo sapiens, UniProt Q96RJ0).
T6 sequence (Q96RJ0 whole entry): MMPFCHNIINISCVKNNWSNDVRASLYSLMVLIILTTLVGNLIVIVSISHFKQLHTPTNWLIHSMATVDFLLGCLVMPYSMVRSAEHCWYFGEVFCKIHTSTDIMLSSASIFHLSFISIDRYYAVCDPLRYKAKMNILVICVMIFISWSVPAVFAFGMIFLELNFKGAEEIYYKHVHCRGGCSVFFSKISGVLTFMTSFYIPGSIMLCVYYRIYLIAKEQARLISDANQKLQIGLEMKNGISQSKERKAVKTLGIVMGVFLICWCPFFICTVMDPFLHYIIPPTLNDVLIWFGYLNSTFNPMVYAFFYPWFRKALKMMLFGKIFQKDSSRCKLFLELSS
The test can be described thus: Fluorescence-based cell-based high throughput dose response assay to identify agonists of the human trace amine associated receptor 1 (TAAR1). In kind it is functional.

A short description of test [11]: cells. Format: functional, cell-based. The source holds these as a separate data set.
Test [12] has as its target T6, Trace amine-associated receptor 1. The test can be described thus: Counterscreen for agonists of the human trace amine associated receptor 1 (hTAAR1): Fluorescence-based cell-based high throughput dose response assay to identify hTAAR1 agonist that also desensitize TAAR1 receptor response. In kind it is functional.
The nature of test [13]: cytotoxicity in HEK-293T cells, dose response, cytotoxicity control for BCR NF-kB inhibitor project, luminescence, B-cell screen hits (AID 489021).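 Also: HEK-293T cells carrying an NF-kB luciferase reporter; cells exposed to compound for about 14 hours before viability readout.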 Format: functional, cell-based.
The nature of test [14]: cytotoxicity toward NIH3T3 fibroblasts, dose response, counter-screen, cell-based, ATP luminescence, mouse fibroblasts (AID 2010).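 Also: cells exposed to compound for about 90 hours before reading.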 In kind it is functional.
Test [15] can be described thus: inhibitors of intracellular T. cruzi replication, confirmation, NIH3T3 host cells, beta-gal luminescence (AID 2044).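 Also: intracellular parasites grown in NIH/3T3 mouse fibroblasts as host cells; luminescent beta-galactosidase reporter signal from transgenic T. cruzi replicating inside host cells; inhibitors lower the luminescence signal.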 Format: functional, cell-based.

Activity calls are given as the source filed them.

Sequence of Induced myeloid leukemia cell differentiation protein Mcl-1 (Q07820 whole entry): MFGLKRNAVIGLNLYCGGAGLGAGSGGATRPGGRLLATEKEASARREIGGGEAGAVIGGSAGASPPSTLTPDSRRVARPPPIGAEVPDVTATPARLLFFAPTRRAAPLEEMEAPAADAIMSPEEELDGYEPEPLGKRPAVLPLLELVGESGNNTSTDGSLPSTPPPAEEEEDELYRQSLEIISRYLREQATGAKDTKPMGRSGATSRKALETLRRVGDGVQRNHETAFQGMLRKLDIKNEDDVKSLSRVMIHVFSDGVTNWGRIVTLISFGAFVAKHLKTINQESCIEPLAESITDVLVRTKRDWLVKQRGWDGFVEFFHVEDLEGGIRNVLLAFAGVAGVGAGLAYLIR
T5 sequence (P49327 whole entry, the tested form may be a part): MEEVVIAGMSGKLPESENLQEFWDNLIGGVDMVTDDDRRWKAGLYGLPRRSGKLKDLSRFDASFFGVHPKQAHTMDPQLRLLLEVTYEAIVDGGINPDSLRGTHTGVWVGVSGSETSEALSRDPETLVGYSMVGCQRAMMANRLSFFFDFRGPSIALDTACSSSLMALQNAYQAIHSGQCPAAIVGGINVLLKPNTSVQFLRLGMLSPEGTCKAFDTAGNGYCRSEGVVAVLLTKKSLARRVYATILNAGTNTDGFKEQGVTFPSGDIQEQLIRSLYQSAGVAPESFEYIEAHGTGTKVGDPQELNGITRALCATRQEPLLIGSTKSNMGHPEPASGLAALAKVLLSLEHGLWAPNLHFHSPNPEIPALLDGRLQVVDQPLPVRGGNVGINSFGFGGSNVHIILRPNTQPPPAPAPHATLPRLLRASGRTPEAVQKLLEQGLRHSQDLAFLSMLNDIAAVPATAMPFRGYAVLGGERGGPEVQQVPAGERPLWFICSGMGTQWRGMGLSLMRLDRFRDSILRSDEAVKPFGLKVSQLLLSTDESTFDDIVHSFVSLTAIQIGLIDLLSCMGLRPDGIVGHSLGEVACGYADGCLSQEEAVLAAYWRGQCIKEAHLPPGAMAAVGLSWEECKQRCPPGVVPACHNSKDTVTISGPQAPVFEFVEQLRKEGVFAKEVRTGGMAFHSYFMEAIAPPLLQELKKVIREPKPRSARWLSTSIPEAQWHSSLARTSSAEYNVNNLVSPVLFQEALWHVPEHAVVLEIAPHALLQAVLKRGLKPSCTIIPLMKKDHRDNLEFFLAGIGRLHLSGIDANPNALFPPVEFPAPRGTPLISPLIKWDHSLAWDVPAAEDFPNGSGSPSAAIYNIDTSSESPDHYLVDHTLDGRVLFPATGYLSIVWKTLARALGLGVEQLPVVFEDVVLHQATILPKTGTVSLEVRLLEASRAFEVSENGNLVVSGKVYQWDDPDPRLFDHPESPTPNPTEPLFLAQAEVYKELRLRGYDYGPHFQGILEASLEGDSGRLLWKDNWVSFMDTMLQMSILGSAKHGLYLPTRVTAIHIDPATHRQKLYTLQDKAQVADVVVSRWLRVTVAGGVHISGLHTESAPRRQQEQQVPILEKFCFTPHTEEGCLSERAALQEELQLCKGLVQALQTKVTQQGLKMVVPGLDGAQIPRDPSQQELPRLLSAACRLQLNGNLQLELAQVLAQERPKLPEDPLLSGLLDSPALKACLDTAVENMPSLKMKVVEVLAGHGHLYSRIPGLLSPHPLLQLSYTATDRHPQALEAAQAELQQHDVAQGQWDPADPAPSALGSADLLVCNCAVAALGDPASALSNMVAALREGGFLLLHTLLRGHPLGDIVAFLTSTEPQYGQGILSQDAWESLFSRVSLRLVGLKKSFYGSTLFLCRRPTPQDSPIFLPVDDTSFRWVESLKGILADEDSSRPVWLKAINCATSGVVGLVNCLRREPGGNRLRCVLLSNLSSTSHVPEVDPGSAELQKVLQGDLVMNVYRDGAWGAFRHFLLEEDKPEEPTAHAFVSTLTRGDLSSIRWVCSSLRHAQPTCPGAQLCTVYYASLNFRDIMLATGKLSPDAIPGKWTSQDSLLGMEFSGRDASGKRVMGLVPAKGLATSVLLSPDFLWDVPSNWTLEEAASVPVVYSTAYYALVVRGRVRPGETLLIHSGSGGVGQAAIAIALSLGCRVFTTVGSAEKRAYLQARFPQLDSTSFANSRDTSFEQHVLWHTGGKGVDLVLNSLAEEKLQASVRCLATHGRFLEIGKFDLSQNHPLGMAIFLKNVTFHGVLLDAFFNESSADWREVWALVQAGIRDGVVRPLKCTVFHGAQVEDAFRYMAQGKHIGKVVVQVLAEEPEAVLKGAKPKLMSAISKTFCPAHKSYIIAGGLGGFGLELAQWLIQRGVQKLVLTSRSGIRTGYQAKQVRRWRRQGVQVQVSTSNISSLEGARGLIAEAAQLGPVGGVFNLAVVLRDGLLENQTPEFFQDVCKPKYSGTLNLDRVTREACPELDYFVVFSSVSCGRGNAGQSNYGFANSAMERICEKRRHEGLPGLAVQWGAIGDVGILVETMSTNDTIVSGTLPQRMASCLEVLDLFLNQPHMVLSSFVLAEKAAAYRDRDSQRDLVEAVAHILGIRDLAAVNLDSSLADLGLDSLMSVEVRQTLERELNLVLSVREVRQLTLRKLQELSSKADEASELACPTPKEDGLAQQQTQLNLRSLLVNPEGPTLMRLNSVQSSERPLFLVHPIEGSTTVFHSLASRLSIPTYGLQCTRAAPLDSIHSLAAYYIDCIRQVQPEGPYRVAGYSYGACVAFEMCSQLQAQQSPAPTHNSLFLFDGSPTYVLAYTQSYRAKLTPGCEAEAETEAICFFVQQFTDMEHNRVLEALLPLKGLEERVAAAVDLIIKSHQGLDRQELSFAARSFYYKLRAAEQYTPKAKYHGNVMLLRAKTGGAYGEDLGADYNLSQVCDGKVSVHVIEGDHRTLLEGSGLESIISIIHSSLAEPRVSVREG

As for `COC(=O)c1ccc(COc2ccccc2/C=N/NS(=O)(=O)c2ccccc2)cc1`, the EC50 in the test “cells [1]” and in “cells [2]” was > 350 µM (not active) in each case.

Consider `O=C(c1cc(Br)ccc1Cl)N1CCC2(CC1)OCCO2`, for which the EC50 is > 350 µM (not active) in “cells [1]” and 67 µM (active) in “cells [2]”.

In the case of `COCC(C)n1c(C)cc(C(=O)COC(=O)c2n[nH]c3ccccc23)c1C` (stereo unspecified), the IC50 was 16.8 µM (active) at Caspase-3, 42.9 µM (active) in test [3], 7.13 µM (active) in test [4] and 24.3 µM (active) in test [5].

For the compound `O=C(Cn1cc([N+](=O)[O-])ccc1=O)N1CCc2ccccc2C1`, the concentration for half-maximal inhibition (IC50) is 5.97 µM (active) on Fatty acid synthase [6] and 3.74 µM (active) at Fatty acid synthase [7].

As for `O=C(COC(=O)c1cc([N+](=O)[O-])ccc1NCCO)Nc1ccc2c(c1)OCO2`, the 50% inhibitory concentration (IC50) on Fatty acid synthase [6] was 4.51 µM (active); at Fatty acid synthase [7] it was 2.69 µM (active).

Turning to `CC(C)C(=O)N1CCN(c2nc3ccc(Cl)cc3s2)CC1`, the 50% effective concentration (EC50) in the test “cells [1]” and in the test “cells [2]” was > 350 µM (not active) each time.

In the case of `O=S(=O)(Cc1cc(Cl)nc(-c2ccncc2)n1)c1ccccc1`, the half-inhibitory concentration (IC50) in test [8] was 6.12 µM (active).

For `CC(C)c1ccc(/N=C/c2c(O)oc3ccccc3c2=O)cc1`, the IC50 at Caspase-3 is 16.9 µM (active); in test [3] it was 90.6 µM (active); in test [4], 3.15 µM (active); in test [5], 30.5 µM (active).

With `OCCNc1nc(Nc2ccccc2)nc(Nc2ccccc2)n1`, the IC50 in test [8] is reported as 24.3 µM (not active).

With `O=C(N[C@H](C(=O)N1CCC[C@H]1C(=O)NCCc1ccccc1Cl)c1ccccc1)c1ccco1`, the IC50 (in “cells [9]”; in test [12]) was > 29.9 µM (inactive) in each case. Further, the figures for the EC50 (in test [10]; in the test “cells [11]”) were 10.3 µM (inactive) and > 29.9 µM (inactive), respectively.

For the compound `Cc1ccc(C(=O)CSc2nnc(COc3cc(C)cc(C)c3)o2)cc1`, the IC50 in test [13] was > 80 µM (inactive).

In the case of `O=C(CC1C(=O)NCCN1CCCc1ccccc1)NCCc1ccccc1Cl` (stereo unspecified), the IC50 in the test “cells [9]” was > 29.9 µM (inactive); in [12] it was 5.21 µM (active). Further, the values for the EC50 (in test [10]; in “cells [11]”) were 1.51 µM (active) and > 29.9 µM (inactive), respectively.

`O=C(O)c1cccc(NC(=O)c2cccc(S(=O)(=O)Nc3cccc([N+](=O)[O-])c3)c2)c1`: the IC50 at Caspase-3 is 19.2 µM (active); in [3], 11.9 µM (active); in test [4], 5.29 µM (active); in test [5] it was 9.02 µM (active).

On to `Cc1nnc(SC(C(=O)Nc2ccc(Cl)c([N+](=O)[O-])c2)c2ccccc2)nc1O` (stereo unspecified), for which the IC50 on Fatty acid synthase [6] was 15.9 µM (active); at Fatty acid synthase [7], 17.3 µM (active).

As for `CNC(=O)c1cccn(Cc2ccc(C(F)(F)F)cc2)c1=O`, the IC50 in test [13] is > 80 µM (inactive).

Take `Cc1nc(Cl)sc1C(=O)Nc1ccc2ccccc2c1`: the 50% inhibitory concentration (IC50) on Caspase-3 is 22.7 µM (active); in [3], 29.8 µM (active); in [4], 7.54 µM (active); in [5], 23.9 µM (active).

Consider `[O-][Cl+3]([O-])([O-])[O-].c1ccc(-c2ccc(-c3n(-c4ccccn4)c4ccccc4[n+]3-c3ccccn3)cc2)cc1`, for which the EC50 in test [14] is > 60 µM (not active); in [15], 0.832 µM (active). The IC50 in [8] was > 54 µM (not active).

Consider `COc1ccccc1N1CN(CCc2ccccc2)CN=C1S`, for which the figures for the IC50 (in the test “cells [9]”; in test [12]) were > 29.9 µM (inactive) and 6.11 µM (active), respectively. Further, the values for the EC50 (in test [10]; in “cells [11]”) were 1.28 µM (active) and > 29.9 µM (inactive), respectively.

Consider `O=C(CCN1C(=O)/C(=C\c2ccccc2Cl)SC1=S)Nc1cccnc1`, for which the IC50 at Fatty acid synthase [6] was 6.84 µM (active); on Fatty acid synthase [7], 7.21 µM (active).

Regarding `CCOC(=O)c1c(C)[nH]c(C)c1S(=O)(=O)N1c2ccccc2CC1C` (stereo unspecified), the EC50 in the test “cells [1]” and in the test “cells [2]” was > 350 µM (not active) each time.

In the case of `O=C(NCN1CCc2ccccc2C1)c1cnccn1`, the IC50 in the test “cells [9]” was > 29.9 µM (inactive); in test [12], 8.03 µM (active). Moreover, the EC50 was 2.14 µM (active) in test [10] and > 29.9 µM (inactive) in “cells [11]”.

Consider `O=c1oc(-c2ccco2)nc2sc3c(c12)CCCCC3`, for which the half-maximal inhibitory concentration (IC50) at Fatty acid synthase [6] was 3.45 µM (active); at Fatty acid synthase [7], 5.34 µM (active).

`O=C(CSC(=S)N1CCCC1)NCCc1ccccc1`: the IC50 in the test “cells [9]” was > 29.9 µM (inactive); in [12] it was 1.19 µM (active). Further, the results for the EC50 (in test [10]; in the test “cells [11]”) were 1.96 µM (active) and > 29.9 µM (inactive), respectively.
